The text below walks through data of US4172143A, “2-Methoxy-benzamide derivatives” (priority 1974, dated 1979).

Counter-ions that a name gives are not always drawn. Like-named read-outs stand apart in the source and are kept apart here.

Data set [1] deals with stereotypies induced by apomorphine. Kind of data set: Antagonism towards stereotypies induced by apomorphine in rats (method of Janssen). It is filed as in vivo, male Sprague-Dawley (Charles River) rats. As to conditions: for ED50: Rattus norvegicus, read-out: Antagonism to stereotypies induced by apomorphine in rats, AD 50; for Antagonism to stereotypies induced by apomorphine in rats, AD 50: oral; for antagonism to stereotypies induced in rats by apomorphine: oral administration. From the text: (1) Antagonism towards stereotypies induced by apomorphine in male Sprague-Dawley (Charles River) rats of average weight 130 g, in accordance with the method of Janssen and colleagues (Arzneim. Forsch. 1960, 10, 1003).
(§1) In these two tests, the results are expressed by the 50% active doses (AD 50).

The subject of data set [2] is emetic effect induced by apomorphine. Put plainly: Antagonism towards emetic effect induced by apomorphine in dogs. As to conditions: Canis lupus familiaris, emesis induced by apomorphine, read-out: Antiemetic activity in dogs, AD 50. The format is in vivo. From the text:
Some compounds have also antiemetic activity which was studied with the following test:
(4) Antagonism towards emetic effect induced by apomorphine in dogs (Shallek et al, Arch. Int. Pharmacodyn. 174 (1968) N°. 2, 350-372. Boissier et al, Med. Exp. 6 (1962), 320-326). The results are expressed in active doses 50% (AD 50) and set in Table IX.

Another data set in a line: in vivo. Conditions: for LD50 at 48 h: LD 50 over 48 hours. On the procedure:
The compounds were administered in the form of their hydrochlorides or of their methanesulphonates.
The acute toxicity was evaluated in Swiss CDl mice of both sexes, of average weight 20 g. The 50% lethal dose (LD 50) of each product was determined by a graphical method.

Data set [3] can be described thus: Catalepsy-inducing effect in rats (method of Tedeschi). It is filed as in vivo, male Sprague-Dawley (Charles River) rats. As to conditions: for TD50: rat, in vivo, ip.
Source text: (2) Catalepsy-inducing effect in rats of the same species and of the same weight, in accordance with the method of Tedeschi and colleagues (Arch. Intern. Pharmacodyn. 1959, 122, 129).
as §1

Data set [4] in a line: Protection against a stress due to an environment and new feedstuffs (method of Stephens). It is filed as in vivo, mice. Conditions: dose producing 40% increase in feedstuff taken, * no activity was observed up to this dose; for ED40: Mus musculus, po, read-out: Protection against stress in mice, AD 40. On the procedure: (3) Protection against a stress due to an environment and due to new feedstuffs, in male […] (CDl strain, weight about 20 g) in accordance with the method of Stephens (Brit. J. Pharmacol. 1973, 49, 146 P.). The doses (AD 40) which produce a 40% increase in the feedstuff taken were determined.

The nature of data set [5]: Neuro-pharmacological tests (overall conclusion). The format is in vivo. From the text: The neuro-pharmacological activity was studied with the aid of the following three tests: […]
Setting [6] is: ip, intraperitoneal, results for hydrochlorides given in weight of base.
Where [7] appears, read: mouse, in vivo, ip, intraperitoneal, mice.
Where [8] appears, read: po, hydrochlorides in weight of base, * = no activity was observed up to this dose.
[9] abbreviates: hydrochlorides in weight of base, * = no activity was observed up to this dose.

One may read the LD50 as the dose expected to kill half of the subjects tested. With `COc1ccc(S(N)(=O)=O)cc1C(=O)NCC1CCCN1CC1CC1` (racemic) [SL-C.036 (racemic) (cl), N-[(1-cyclopropylmethyl-pyrrolidinyl-2)-methyl]-2-methoxy-5-sulphamoyl-benzamide], the values for the ED50 in data set [1] (setting [6]) and in data set [2] were 15 mg/kg and 0.037 mg/kg, respectively. This compound registered an LD50 at 48 h in the data set “in vivo” (setting [7]) of 400 mg/kg.
`COc1ccc(S(N)(=O)=O)cc1C(=O)NCC1CCCN1Cc1ccc(F)cc1` (racemic) [SL-C.205 (racemic) (cl), N-[(1-p-fluorobenzyl-pyrrolidinyl-2)-methyl]-2-methoxy-5-sulphamoyl-benzamide]: in data set [3], the TD50 is greater than 480 mg/kg. Besides, the ED50 in data set [1] (setting [6]) amounted to 30 mg/kg; in data set [1] (setting [8]), 85 mg/kg. For the same compound, the LD50 at 48 h in “in vivo” (setting [7]) turned out to be 750 mg/kg. The LD50 at 168 h in “in vivo” (mouse, in vivo, po, LD 50, oral, mice, 7 days) is 3000 mg/kg.
For `COc1ccc(S(N)(=O)=O)cc1C(=O)NCC1CCCN1Cc1ccc(F)cc1` (racemic) [SL-C.205 (racemic) (ms), N-[(1-p-fluorobenzyl-pyrrolidinyl-2)-methyl]-2-methoxy-5-sulphamoyl-benzamide], in data set [4], the ED40 is 60 mg/kg. The “Antagonism to stereotypies induced by apomorphine in rats, AD 50” value (“Antagonism to stereotypies induced … AD 50” for short) in data set [1] (hydrochlorides in weight of base, * = no activity was observed up to this dose, racemic (ms)) was 75 mg/kg. In the data set “in vivo” (mouse, in vivo, iv, mice), this compound gave an LD50 at 48 h of 190 mg/kg.
In the case of `COc1ccc(S(N)(=O)=O)cc1C(=O)NCC1CCCN1Cc1ccc(F)cc1` (single isomer, unassigned) [SL-C.205 1 (ms), N-[(1-p-fluorobenzyl-pyrrolidinyl-2)-methyl]-2-methoxy-5-sulphamoyl-benzamide], the ED40 in data set [4] is greater than 30 mg/kg. Besides, in data set [1] (setting [9]), the “Antagonism to stereotypies induced … AD 50” value is reported as greater than 150 mg/kg. For the same compound, the LD50 at 48 h in “in vivo” (mouse, in vivo, iv, mice) was determined as 160 mg/kg. Also, in data set [5] (in vivo), the “activity in neuro-pharmacological tests” value is “practically inactive”.
In the case of `COc1ccc(S(N)(=O)=O)cc1C(=O)NCC1CCCN1Cc1ccc(F)cc1` (single isomer, unassigned) [SL-C.205 d (ms), N-[(1-p-fluorobenzyl-pyrrolidinyl-2)-methyl]-2-methoxy-5-sulphamoyl-benzamide], the “Protection against stress in mice, AD 40” value in data set [4] (oral) was 30 mg/kg. For the same compound, the “Antagonism to stereotypies induced … AD 50” value in data set [1] (setting [9]) was found to be 50 mg/kg. For the same compound, the “LD 50 over 48 hours” value in “in vivo” (mouse, in vivo, iv) was 160 mg/kg. Moreover, the “activity relative to the racemic compound” value in data set [5] (depending on the chosen method of evaluation) is recorded as 1.5 times or twice.
With `COc1ccc(S(N)(=O)=O)cc1C(=O)NCC1CCCN1C(C)c1ccccc1` (single isomer, unassigned) [SL-D.222 (cl), 1(-)-N-[(1-α-methylbenzyl-pyrrolidinyl-2-)-methyl]-2-methoxy-5-sulphamoyl-benzamide], in “in vivo” (setting [7]), the LD50 at 48 h is 625 mg/kg.
Regarding `COc1ccc(S(N)(=O)=O)cc1C(=O)NCC1CCCN1C(C)c1ccccc1` (single isomer, unassigned) [SL-D.223 (cl)], the “LD 50 over 48 hours” value in “in vivo” (mouse, in vivo, ip, 2880 min) was 650 mg/kg.
For `COc1ccc(S(N)(=O)=O)cc1C(=O)NC[C@@H]1CCCN1CC1CCCCC1` [77 205 (S) (+) (ms)], the ED50 in data set [2] was 0.014 mg/kg.
Consider `COc1ccc(S(N)(=O)=O)cc1C(=O)NC[C@@H]1CCCN1CC1CC1` [77.075 (S) (+) (ms), N-[(1-cyclopropylmethyl-pyrrolidinyl-2)-methyl]-2-methoxy-5-sulphamoyl-benzamide], for which, in data set [1] (setting [6]), the ED50 turned out to be 4 mg/kg. In “in vivo” (setting [7]), this compound displayed an LD50 at 48 h of 350 mg/kg.
Take `COc1ccc(S(=O)(=O)N(C)C)cc1C(=O)NCC1CCCN1CC1CC1` (stereo not shown) [77.149]: the ED50 came out at 3 mg/kg in data set [1] (setting [6]) and 0.04 mg/kg in data set [2]. In “in vivo” (setting [7]), this compound gave an LD50 at 48 h of 240 mg/kg.
Turning to `COc1ccc(S(C)(=O)=O)cc1C(=O)NCC1CCCN1CC1CC1` (stereo not shown) [77.173], the ED50 in data set [1] (setting [6]) amounted to 1.5 mg/kg. This compound also had a median lethal dose (LD50) at 48 h in the data set “in vivo” (setting [7]) of 235 mg/kg.
In the same order, the values of `COc1ccc(S(N)(=O)=O)cc1C(=O)NCC1CCCN1CC1CCCCC1` (stereo not shown) [77.205] are 8 mg/kg and 360 mg/kg.
For the compound `CCS(=O)(=O)c1ccc(OC)c(C(=O)NCC2CCCN2CC2CC2)c1` (stereo not shown) [77.206], the ED50 in data set [1] (setting [6]) was 3 mg/kg. In “in vivo” (setting [7]), this compound gave an LD50 at 48 h of 310 mg/kg.
Compound `COc1ccc(S(N)(=O)=O)cc1C(=O)NCC1CCCN1Cc1cccc(Cl)c1` (stereo not shown) [SL-C.193 (cl)] yielded a TD50 in data set [3] greater than 300 mg/kg.
Consider `COc1ccc(S(N)(=O)=O)cc1C(=O)NCC1CCCN1Cc1ccc(F)cc1` (stereo not shown) [SL-C.205, N-[(1-p-fluorobenzyl-pyrrolidinyl-2)-methyl]-2-methoxy-5-sulphamoyl-benzamide], for which the induction of catalepsy result in data set [3] (up to high doses) is reported as “does not induce catalepsy up to high doses”. Further, the “antagonism to stereotypies induced in rats by apomorphine” value in data set [1] is reported as “powerful antagonistic agent”. Besides, the “toxicity compared with Sulpiride” value in “in vivo” (than Sulpiride) is recorded as “much less toxic”. In data set [5] (than Sulpiride), the “activity compared with Sulpiride” value is recorded as “markedly more active”.
Regarding `C#CCN1CCCC1CNC(=O)c1cc(S(N)(=O)=O)ccc1OC` (stereo not shown) [SL-C.299 (cl)], in data set [3], the TD50 was greater than 150 mg/kg. Also, the ED50 in data set [1] (setting [6]) came out at 80 mg/kg. Further, the LD50 at 48 h in “in vivo” (setting [7]) came out at 170 mg/kg.
Compound `COc1ccc(S(N)(=O)=O)cc1C(=O)NCC1CCCN1C(c1ccccc1)c1ccccc1` (stereo not shown) [SL-D.090 (cl)] gave an LD50 at 48 h in “in vivo” (setting [7]) greater than 1500 mg/kg.
As to `COc1ccc(S(C)(=O)=O)cc1C(=O)NCC1CCCN1Cc1ccc(F)cc1` (stereo not shown) [SL-D.163 (cl)], the ED50 in data set [1] (setting [6]) is 3 mg/kg. In “in vivo” (setting [7]), this compound yielded an LD50 at 48 h of 400 mg/kg.
As to `COc1ccc(Cl)cc1C(=O)NCC1CCCN1Cc1ccc(F)cc1` (stereo not shown) [SL-D.165 (cl), N-[(1-p-fluorobenzyl-pyrrolidinyl-2)-methyl]-2-methoxy-5-chloro-benzamide], the ED40 in data set [4] came to 30 mg/kg. Besides, the ED50 in data set [1] (setting [6]) worked out at 1.5 mg/kg. Moreover, the LD50 at 48 h in the data set “in vivo” (setting [7]) was found to be 275 mg/kg.
As to `COc1ccc(S(N)(=O)=O)cc1C(=O)NCC1CCCN1Cc1ccccc1F` (stereo not shown) [SL-D.192 (cl)], the ED40 in data set [4] is 30 mg/kg. In the data set “in vivo” (setting [7]), this compound had a median lethal dose (LD50) at 48 h greater than 2000 mg/kg.
Regarding `COc1ccc(S(N)(=O)=O)cc1C(=O)NCC1CCCN1Cc1cccc(F)c1` (stereo not shown) [SL-D.193 (cl), N-[(1-m-fluorobenzyl-pyrrolidinyl-2)-methyl]-2-methoxy-5-sulphamoyl-benzamide], the ED40 in data set [4] was 30 mg/kg. The ED50 in data set [1] (setting [6]) was 150 mg/kg. The LD50 at 48 h in “in vivo” (setting [7]) is greater than 2000 mg/kg.
With `COc1ccc(S(N)(=O)=O)cc1C(=O)NCC1CCCN1CC=Cc1ccc(F)cc1` (stereo not shown) [SL-D.194 (cl)], the LD50 at 48 h in the data set “in vivo” (setting [7]) was greater than 2000 mg/kg.
Compound `COc1ccc(S(N)(=O)=O)cc1C(=O)NCC1CCCN1CCC#N` (stereo not shown) [Sl-C.262 (cl), N-[1-(2-cyanoethyl)-pyrrolidinyl-2-methyl]-2-methoxy-5-sulphamoyl-benzamide] displayed an LD50 at 48 h in the data set “in vivo” (setting [7]) greater than 2000 mg/kg.
Compound `CCN1CCCC1CNC(=O)c1cc(S(N)(=O)=O)ccc1OC` (stereo not shown) [Sulpiride (cl), N-[(1-ethylpyrrolidinyl-2)-methyl]-2-methoxy-5-sulphamoyl-benzamide hydrochloride, reference compound] had a TD50 in data set [3] greater than 100 mg/kg. For the same compound, the ED50 in data set [1] (setting [6]) was 60 mg/kg; in data set [1] (setting [8]) it was greater than 600 mg/kg. In addition, the “antagonism to stereotypies induced in rats by apomorphine” value in data set [1] was “inactive”.
